The text below walks through data of PubChem BioAssay (NCI).

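Protocol summary: plate cells (96-well), add compound at 5 concentrations, incubate 48 h, interpolate endpoints linearly. GI50 = concentration required for 50% inhibition of growth. TGI: concentration producing complete growth inhibition.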

Assay in all cases: NCI anticancer screen, dose series, 48 h
Experiment [1] deals with OVCAR-3 ovarian.
The subject of experiment [2] is A549 NSCLC.
For experiment [3], the system named is OVCAR-4 ovarian.
Experiment [4] deals with UACC-257 melanoma.
The subject of experiment [5] is CCRF-CEM leukemia.
Experiment [6] has as its system M14 melanoma.
Experiment [7] deals with IGROV1 ovarian.
For experiment [8], the system named is HT29 colon.
The subject of experiment [9] is PC-3 prostate.

For the compound `CCc1cccc(CC)c1NC1=CC(=O)C(=O)c2ccccc21`, the TGI in experiment [1] is 8.39 µM; in experiment [2], 37.8 µM; in [3], 27.8 µM; in experiment [4] it was 28.6 µM; in experiment [5], above 100 µM; in [6] it was 27.2 µM. Moreover, the TGI stood at 28.9 µM in [7] and 3.95 µM in experiment [8].

`O=C(Nc1cc(Cl)ccc1Cl)c1cc2ccccc2oc1=O`: the TGI in [1], in experiment [2], in experiment [4], in experiment [5], in experiment [6] and in experiment [7] was above 100 µM throughout. In experiment [8], this compound had a TGI above 100 µM.

With `CC(=O)NNc1nc(C)c(C(=O)NNC(=O)C(=O)Nc2ccc(C)cc2[N+](=O)[O-])s1`, the TGI in [1], in experiment [2], in experiment [3], in experiment [4], in [5] and in experiment [6] was above 100 µM in each case. The TGI in experiment [7] and in experiment [8] was above 100 µM in each case.

Consider `BrC(/C=N/Nc1nnc(-c2ccccc2)c(-c2ccccc2)n1)C(Br)c1ccccc1` (stereo not given), for which the TGI in experiment [1] is above 100 µM; in experiment [2], above 100 µM; in experiment [4], above 100 µM; in [5], 94.7 µM; in experiment [6], 51.8 µM; in [7], above 100 µM. Moreover, the TGI in [8] was above 100 µM.

As for `Cc1c(Cl)ccc2[s+]snc12`, the TGI was above 100 µM in experiment [1]; above 100 µM in [2]; above 100 µM in [3]; 89.7 µM in experiment [4]; 82.6 µM in experiment [5]; 77.8 µM in experiment [6]. Besides, the TGI in [7] and in experiment [8] was above 100 µM throughout.

As to `COc1ccc2c(c1)c(-c1nc(-c3cn(C)c4ncccc34)cs1)cn2CCCCN1CCCCC1`, the GI50 in experiment [1] is 1.7 µM; in [2], 1.74 µM; in experiment [3], 1.83 µM; in experiment [9] it was 1.61 µM; in experiment [8], 1.59 µM. Further, the TGI in experiment [1] was determined as 3.15 µM; in experiment [2], 3.21 µM; in experiment [3], 3.39 µM; in experiment [9] it was 3 µM; in experiment [8] it was 3.03 µM.

As to `Cc1cc2c(=O)cc(-c3ccncc3)oc2c(C(N)=O)c1C`, the TGI in experiment [1], in experiment [2], in experiment [4], in experiment [5], in experiment [7] and in experiment [8] was above 100 µM throughout.

Turning to `O=c1[nH]c(-c2ccncc2)nc2sc3c(c12)CCCCCC3`, the GI50 in experiment [1], in experiment [2], in [4], in [9], in [5] and in experiment [6] was above 100 µM each time. Moreover, the GI50 in experiment [7] and in experiment [8] was above 100 µM each time. The TGI in [1], in [2], in [4], in [9], in experiment [5] and in experiment [6] was above 100 µM in each case. The TGI in [7] and in experiment [8] was above 100 µM each time.

With `Cc1nc2ccccc2c(=O)n1/N=C(\N=Nc1ccc(Cl)cc1)c1ccc(N(C)C)cc1`, the TGI in [2], in experiment [5], in experiment [7] and in experiment [8] was above 100 µM each time.

Consider `C#CC[C@]12CC(=O)CC[C@H]1CC1(C2)OCCO1`, for which the TGI in experiment [1], in [2], in [3], in experiment [4], in experiment [5] and in [6] was above 100 µM in each case. The compound further showed a TGI in [7] above 100 µM.

Turning to `CCCCP1(=O)C=CC(Cl)=C(C)C1` (stereo not given), the TGI in [1], in experiment [2], in experiment [3], in [4], in experiment [5] and in [6] was above 100 µM in each case. The TGI in experiment [7] and in [8] was above 100 µM in each case.

Take `COc1cc(CC2c3cc(OC)c(OC)cc3CCN2C)c(C(=O)O)cc1OC` (stereo not given): the TGI in experiment [1], in experiment [2], in [4], in [5], in [6] and in experiment [8] was above 100 µM throughout.

As to `O=P(c1ccccc1)(c1ccccc1)C1CC=C2CCCCCC2C1` (stereo not given), the TGI in experiment [1] is 50 µM; in experiment [2], above 10 µM; in experiment [3] it was 67.4 µM; in experiment [4], 68.5 µM; in experiment [5], 61.5 µM; in experiment [6], 40.9 µM. For the same compound, the TGI in [7] and in experiment [8] was above 100 µM throughout.

Turning to `CC(=O)[O-].O=C([CH-]C(=O)c1ccccc1)c1ccccc1.O=C([CH-]C(=O)c1ccccc1)c1ccccc1.[Dy+3]`, the GI50 in experiment [1] is 13.9 µM; in experiment [2], 18 µM; in experiment [3], 16.5 µM; in [4], 15.6 µM; in experiment [6], 15.9 µM; in [7] it was 18.5 µM. The GI50 in experiment [8] was 11.3 µM. The TGI was 51.8 µM in experiment [1]; 51.2 µM in [2]; above 100 µM in experiment [3]; 40.4 µM in [4]; 36 µM in experiment [6]; 93.8 µM in experiment [7]. Also, in [8], the TGI was determined as 26.2 µM.

For the compound `N#CC1(C2CC(=O)N(c3ccccc3)C2=O)CCCCC1=O` (stereo not given), the TGI in experiment [1], in experiment [2], in experiment [3], in experiment [5], in experiment [6] and in experiment [7] was above 100 µM throughout. This compound also yielded a TGI in [8] above 100 µM.

Regarding `N#Cc1cccc(C2SCc3nc4ccccc4n32)c1` (stereo not given), the TGI in [2], in experiment [3], in experiment [4], in experiment [5], in experiment [7] and in experiment [8] was above 100 µM in each case.

Turning to `CCC[CH2][Sn]1([CH2]CCC)[O]C(=O)c2cccnc2[S]1`, the GI50 is 3.49 µM in [1]; 16.8 µM in experiment [2]; 10.1 µM in [3]; 2.64 µM in experiment [4]; 0.058 µM in [5]; 3.22 µM in experiment [6]. Moreover, the GI50 in [7] is 11.2 µM; in [8], 11.1 µM. Besides, the TGI in experiment [1] stood at 12.5 µM; in experiment [2], 31.6 µM; in experiment [3], 21.9 µM; in experiment [4], 6.97 µM; in [5], 1.02 µM; in [6], 10.1 µM. Also, the values for the TGI in experiment [7] and in experiment [8] were 23.5 µM and 24.7 µM, respectively.

On to `O=C(c1ccccc1)N1CCc2c([nH]c3ccccc23)C1`, for which the TGI is above 100 µM in [1]; above 100 µM in [2]; above 100 µM in [3]; 95 µM in [4]; above 100 µM in experiment [5]; above 100 µM in [6]. Further, the TGI in [7] and in experiment [8] was above 100 µM each time.

`C/C(=N\NC(N)=S)c1ccc(Oc2ccccc2)cc1`: the TGI in [1] was 22.9 µM; in [2], 74.4 µM; in [3], 16.8 µM; in [5], 37.2 µM; in [6] it was 25.8 µM; in experiment [7], 12.5 µM.

In the case of `CN(C)c1ccc(-c2cc(-c3cccc(NS(C)(=O)=O)c3)nc(N)c2C#N)cc1`, the GI50 was 0.0226 µM in experiment [1]; 0.0537 µM in [2]; 0.522 µM in experiment [3]; 0.0563 µM in experiment [4]; 0.0327 µM in experiment [9]; 0.0379 µM in [5]. Further, the GI50 in experiment [6] is 0.0262 µM; in experiment [7] it was 0.0624 µM; in experiment [8] it was 0.0319 µM. For the same compound, the TGI was 0.0568 µM in [1]; above 56.2 µM in experiment [2]; 53.8 µM in experiment [3]; 44.6 µM in [4]; 13.3 µM in experiment [9]; above 100 µM in [5]. In addition, the TGI in [6] came to 13.4 µM; in experiment [7], 30.8 µM; in experiment [8], 0.457 µM.

In the case of `COc1cc(-c2nn(-c3cccc(NC(=O)NCCNC(=O)c4ccccc4)c3)cc2-c2ccncc2)ccc1Cl`, the GI50 in experiment [1] is 2.93 µM; in experiment [2], 4.57 µM; in experiment [3], 3.03 µM; in experiment [4], 3.96 µM; in experiment [9], 2.4 µM; in experiment [5], 1.41 µM. In addition, the GI50 is 2.88 µM in [6], 4.68 µM in [7] and 0.965 µM in [8]. The TGI in experiment [1] is above 100 µM; in experiment [2], above 100 µM; in experiment [3] it was above 100 µM; in experiment [4], 21.1 µM; in experiment [9] it was above 100 µM; in experiment [5] it was above 100 µM. The TGI was above 100 µM in experiment [6], above 100 µM in experiment [7] and 23.6 µM in experiment [8].

`O=C(CC1(O)C(=O)Nc2ccc(Br)cc21)c1cccc([N+](=O)[O-])c1` (stereo not given): the TGI was above 100 µM in experiment [1]; above 100 µM in experiment [2]; 67.1 µM in experiment [3]; 78.6 µM in experiment [4]; 99.6 µM in experiment [5]; above 100 µM in experiment [6]. The compound also had a TGI in [8] above 100 µM.

In the case of `O=C1C(=C2C(=O)c3ccccc3[N+]2=O)N([O-])c2ccccc21`, the TGI in experiment [1] was 39.7 µM; in experiment [2], above 100 µM; in experiment [3] it was 31.7 µM; in experiment [5] it was 63.8 µM; in experiment [6], 43.7 µM; in experiment [7] it was above 100 µM. Further, the TGI in [8] was 94.1 µM.

For the compound `O=C1N(c2ccccc2)C2(O)C(=O)c3ccccc3C2(O)N1c1ccccc1` (stereo not given), the TGI in [1], in experiment [2], in experiment [3], in experiment [4], in experiment [5] and in experiment [6] was above 100 µM in each case. Moreover, the TGI in experiment [7] and in [8] was above 100 µM throughout.

Turning to `CCOc1ccc(/C=C/C(=O)c2sc(NNC(C)=O)nc2C)cc1`, the TGI in experiment [1], in [2], in [4], in [5], in [7] and in [8] was above 100 µM each time.

Turning to `CC1(C)OC2OC(/C=C/[N+](=O)[O-])C3OC(C)(C)OC3C2O1` (stereo not given), the TGI in [1] was 34.7 µM; in experiment [2] it was 42.6 µM; in [3] it was 30.9 µM; in experiment [4] it was 20.7 µM; in [5] it was above 75.7 µM; in experiment [6], 27.3 µM. In addition, the results for the TGI in experiment [7] and in experiment [8] were above 74.4 µM and 40.1 µM, respectively.

Consider `N#CCC1CCN(c2nc(Nc3ccc(N4CCC(O)CC4)cc3)c3c(=O)[nH]ncc3n2)CC1`, for which the TGI in experiment [1], in experiment [2], in experiment [3], in experiment [4], in experiment [9] and in experiment [5] was above 100 µM throughout. In addition, the results for the TGI in [6], in [7] and in experiment [8] were above 100 µM, 2.95 µM and above 100 µM, respectively. Besides, the GI50 is 0.455 µM in experiment [2]; above 58.1 µM in [3]; above 100 µM in [4]; above 100 µM in [9]; 1.01 µM in experiment [5]; 0.402 µM in [6]. Further, the GI50 in experiment [7] was 0.266 µM; in experiment [8] it was 0.283 µM.

For the compound `C=CC(C)(C)[C@@]12CC3C(=O)N[C@@H](Cc4ccccc4)C(=O)N3[C@@H]1N(C(C)=O)c1ccccc12` (stereo not given in full), the TGI in experiment [1] was above 100 µM; in experiment [2], above 100 µM; in experiment [3], 97.5 µM; in experiment [4], above 100 µM; in experiment [5], above 100 µM; in experiment [6] it was above 100 µM. For the same compound, the TGI in experiment [7] and in experiment [8] was above 100 µM each time.

As to `O=C(/C=C/c1c[nH]c2ccccc12)c1ccccc1O`, the TGI in experiment [1] amounted to 20.3 µM; in experiment [2] it was 24.5 µM; in [3], 27 µM; in experiment [4] it was 31.5 µM; in experiment [9], 18.7 µM; in [6], 27 µM. Also, the TGI in experiment [7] amounted to 36.4 µM; in experiment [8], 33.9 µM.
